According to patent US8592174B2, “Peptidase substrates” (bioMérieux, S.A., priority 2009, dated 2013):

Tests used:
Type in all cases: cell-based
Conditions in all cases: 75 mg/l, 48 h 37° C.
[1] = tested on: Burkholderia cepacia 7507032; assay: Peptidase detection on Columbia medium (Example 5)
Method: (§1) After homogenization, the media were distributed into Petri dishes 55 mm in diameter. A medium acting as a growth control (Columbia) and denoted C was also poured.
(§2) Twenty-two strains of microorganisms were inoculated with a 10 μl calibrated loop according to the three-quadrant streaking method using bacterial suspensions at 0.5 McFarland.

[2] = tested on: Staphylococcus aureus 7811049; assay: Peptidase detection on Columbia medium (Example 5); note: key: +++: good growth/high coloration strength; ++: medium growth/medium coloration strength; +: weak growth/weak coloration strength; −: no growth/no coloration
Method: as §1, §2

Candida glabrata 0408083 [3] = assay: Peptidase detection on Columbia medium (Example 5); note: key: +++: good growth/high coloration strength; ++: medium growth/medium coloration strength; +: weak growth/weak coloration strength; −: no growth/no coloration
Method: as §1, §2

[4] = tested on: Klebsiella pneumoniae 0008009; assay: Peptidase detection on Columbia medium (Example 5); note: key: +++: good growth/high coloration strength; ++: medium growth/medium coloration strength; +: weak growth/weak coloration strength; −: no growth/no coloration
Method: as §1, §2

[5] = tested on: Morganella morganii 9207053; assay: Peptidase detection on Columbia medium (Example 5); note: key: +++: good growth/high coloration strength; ++: medium growth/medium coloration strength; +: weak growth/weak coloration strength; −: no growth/no coloration
Method: as §1, §2

[6] = tested on: Staphylococcus epidermidis 0203050; assay: Peptidase detection on Columbia medium (Example 5)
Method: as §1, §2

MRSA 0303033 [7] = assay: Peptidase detection on Columbia medium (Example 5)
Method: as §1, §2

[8] = tested on: Enterococcus faecium 0610021; assay: Peptidase detection on Columbia medium (Example 5)
Method: as §1, §2

[9] = tested on: Enterococcus faecalis 0008192; assay: Peptidase detection on Columbia medium (Example 5)
Method: as §1, §2

Escherichia coli 0002005 [10] = assay: Peptidase detection on Columbia medium (Example 5)
Method: as §1, §2

[11] = tested on: Yersinia enterocolitica 7605019; assay: Peptidase detection on Columbia medium (Example 5)
Method: as §1, §2

[12] = tested on: Citrobacter freundii 0006197; assay: Peptidase detection on Columbia medium (Example 5)
Method: as §1, §2

[13] = tested on: Pseudomonas aeruginosa 0001001; assay: Peptidase detection on Columbia medium (Example 5)
Method: as §1, §2

Candida albicans 0801025 [14] = assay: Peptidase detection on Columbia medium (Example 5)
Method: as §1, §2

[15] = tested on: Bacillus subtilis 0204038; assay: Peptidase detection on Columbia medium (Example 5)
Method: as §1, §2

[16] = tested on: Acinetobacter baumannii 0604029; assay: Peptidase detection on Columbia medium (Example 5)
Method: as §1, §2

[17] = tested on: Enterobacter cloacae 0604040; assay: Peptidase detection on Columbia medium (Example 5)
Method: as §1, §2

[18] = tested on: Listeria monocytogenes 8812049; assay: Peptidase detection on Columbia medium (Example 5)
Method: as §1, §2

[19] = tested on: Streptococcus pyogenes 9806380; assay: Peptidase detection on Columbia medium (Example 5)
Method: as §1, §2

[20] = tested on: Providencia rettgeri 0706064; assay: Peptidase detection on Columbia medium (Example 5)
Method: as §1, §2

[21] = tested on: Serratia marcescens 7303004; assay: Peptidase detection on Columbia medium (Example 5)
Method: as §1, §2

[22] = tested on: Salmonella ser. Typhimurium 0801029; assay: Peptidase detection on Columbia medium (Example 5)
Method: as §1, §2

[23] = tested on: Burkholderia cepacia 7507032; assay: Peptidase detection on Columbia medium (Example 4)
Description: (§3) After homogenization, the media were distributed into 120-mm-squared dishes. A medium serving as a growth control (Columbia) and denoted C was also poured.

[24] = tested on: Staphylococcus aureus 7811049; assay: Peptidase detection on Columbia medium (Example 4)
Description: as §3

Candida glabrata 0408083 [25] = assay: Peptidase detection on Columbia medium (Example 4)
Description: as §3

[26] = tested on: Klebsiella pneumoniae 0008009; assay: Peptidase detection on Columbia medium (Example 4)
Description: as §3

[27] = tested on: Morganella morganii 9207053; assay: Peptidase detection on Columbia medium (Example 4)
Description: as §3

[28] = tested on: Staphylococcus epidermidis 0203050; assay: Peptidase detection on Columbia medium (Example 4)
Description: as §3

MRSA 0303033 [29] = assay: Peptidase detection on Columbia medium (Example 4)
Description: as §3

[30] = tested on: Enterococcus faecium 0610021; assay: Peptidase detection on Columbia medium (Example 4)
Description: as §3

[31] = tested on: Enterococcus faecalis 0008192; assay: Peptidase detection on Columbia medium (Example 4)
Description: as §3

Escherichia coli 0002005 [32] = assay: Peptidase detection on Columbia medium (Example 4)
Description: as §3

[33] = tested on: Yersinia enterocolitica 7605019; assay: Peptidase detection on Columbia medium (Example 4)
Description: as §3

[34] = tested on: Citrobacter freundii 0006197; assay: Peptidase detection on Columbia medium (Example 4)
Description: as §3

[35] = tested on: Pseudomonas aeruginosa 0001001; assay: Peptidase detection on Columbia medium (Example 4)
Description: as §3

[36] = tested on: Salmonella ser typhimurium 0801029; assay: Peptidase detection on Columbia medium (Example 4)
Description: as §3

Candida albicans 0801025 [37] = assay: Peptidase detection on Columbia medium (Example 4)
Description: as §3

[38] = tested on: Bacillus subtilis 0204038; assay: Peptidase detection on Columbia medium (Example 4)
Description: as §3

[39] = tested on: Acinetobacter baumannii 0604029; assay: Peptidase detection on Columbia medium (Example 4)
Description: as §3

[40] = tested on: Enterobacter cloacae 0604040; assay: Peptidase detection on Columbia medium (Example 4)
Description: as §3

[41] = tested on: Listeria monocytogenes 8812049; assay: Peptidase detection on Columbia medium (Example 4)
Description: as §3

[42] = tested on: Streptococcus pyogenes 9806380; assay: Peptidase detection on Columbia medium (Example 4)
Description: as §3

[43] = tested on: Providencia rettgeri 0706064; assay: Peptidase detection on Columbia medium (Example 4)
Description: as §3

[44] = tested on: Serratia marcescens 7303004; assay: Peptidase detection on Columbia medium (Example 4)
Description: as §3

Q: With `C[C@H](N)C(=O)Nc1ccc(C=Cc2ccc3ccccc3[n+]2C)cc1.Cl.[Cl-]` [L-alanyl-2-(4′-amidostyryl)-N-methylquinolinium (dichloride)] as the compound, how does the Coloration strength [1] read?
A: −

Q: What about the Growth ([1]; control C: ++) of the same compound?
A: ++

Q: And the Coloration strength [2]?
A: −

Q: What about the Growth ([2]; control C: ++) of the same compound?
A: ++

Q: And the Coloration strength (Candida glabrata 0408083 [3])?
A: −

Q: And the Growth (Candida glabrata 0408083 [3]; control C: +)?
A: +

Q: What about the Coloration strength [4] of the same compound?
A: −

Q: And the Growth ([4]; control C: ++)?
A: ++

Q: What about the Coloration strength [5] of the same compound?
A: −

Q: And the Growth ([5]; control C: ++)?
A: ++

Q: And the Color [6]?
A: orange

Q: What about the Coloration strength [6] of the same compound?
A: +

Q: And the Growth ([6]; control C: ++)?
A: ++

Q: What about the Color (MRSA 0303033 [7]) of the same compound?
A: orange

Q: What about the Coloration strength (MRSA 0303033 [7]) of the same compound?
A: +

Q: What about the Growth (MRSA 0303033 [7]; control C: ++) of the same compound?
A: ++

Q: What about the Color [8] of the same compound?
A: orange

Q: And the Coloration strength [8]?
A: +

Q: And the Growth ([8]; control C: +)?
A: +

Q: What about the Color [9] of the same compound?
A: orange

Q: And the Coloration strength [9]?
A: +

Q: What about the Growth ([9]; control C: +) of the same compound?
A: +

Q: What about the Coloration strength (Escherichia coli 0002005 [10]) of the same compound?
A: −

Q: What about the Growth (Escherichia coli 0002005 [10]; control C: ++) of the same compound?
A: ++

Q: And the Coloration strength [11]?
A: −

Q: What about the Growth ([11]; control C: +) of the same compound?
A: +

Q: What about the Coloration strength [12] of the same compound?
A: −

Q: And the Growth ([12]; control C: ++)?
A: ++

Q: And the Coloration strength [13]?
A: −

Q: What about the Growth ([13]; control C: ++) of the same compound?
A: ++

Q: What about the Coloration strength (Candida albicans 0801025 [14]) of the same compound?
A: −

Q: And the Growth (Candida albicans 0801025 [14]; control C: ++)?
A: ++

Q: And the Color [15]?
A: orange

Q: What about the Coloration strength [15] of the same compound?
A: +

Q: What about the Growth ([15]; control C: ++) of the same compound?
A: ++

Q: And the Coloration strength [16]?
A: −

Q: And the Growth ([16]; control C: ++)?
A: ++

Q: And the Coloration strength [17]?
A: −

Q: And the Growth ([17]; control C: ++)?
A: ++

Q: What about the Color [18] of the same compound?
A: orange

Q: And the Coloration strength [18]?
A: +

Q: And the Growth ([18]; control C: +)?
A: +

Q: What about the Coloration strength [19] of the same compound?
A: −

Q: What about the Growth ([19]; control C: +) of the same compound?
A: +

Q: What about the Coloration strength [20] of the same compound?
A: −

Q: And the Growth ([20]; control C: ++)?
A: ++

Q: What about the Color [21] of the same compound?
A: orange

Q: And the Coloration strength [21]?
A: +

Q: What about the Growth ([21]; control C: ++) of the same compound?
A: ++

Q: And the Coloration strength [22]?
A: −

Q: And the Growth ([22]; control C: ++)?
A: ++

Q: Which results are given for `C[C@H](N)C(=O)N[C@@H](C)C(=O)Nc1ccc(C=Cc2cc[n+](C)c3ccccc23)cc1.Cl.[Cl-]` [L-alanyl-L-alanyl-4-(4′-amidostyryl)-N-methylquinolinium (dichloride)]?
A: Color [23]: −; Coloration strength [23]: −; Growth ([23]; control C: ++): ++; Color [24]: −; Coloration strength [24]: −; Growth ([24]; control C: ++): ++; Coloration strength (Candida glabrata 0408083 [25]): −; Growth (Candida glabrata 0408083 [25]; control C: +): −; Color [26]: orange; Coloration strength [26]: +; Growth ([26]; control C: ++): ++; Color [27]: −; Coloration strength [27]: −; Growth ([27]; control C: ++): ++; Color [28]: −; Coloration strength [28]: −; Growth ([28]; control C: ++): ++; Color (MRSA 0303033 [29]): −; Coloration strength (MRSA 0303033 [29]): −; Growth (MRSA 0303033 [29]; control C: ++): ++; Color [30]: −; Coloration strength [30]: −; Growth ([30]; control C: ++): ++; Color [31]: −; Coloration strength [31]: −; Growth ([31]; control C: ++): ++; Color (Escherichia coli 0002005 [32]): −; Coloration strength (Escherichia coli 0002005 [32]): −; Growth (Escherichia coli 0002005 [32]; control C: ++): ++; Color [33]: −; Coloration strength [33]: −; Growth ([33]; control C: ++): ++; Color [34]: −; Coloration strength [34]: −; Growth ([34]; control C: ++): ++; Color [35]: −; Coloration strength [35]: −; Growth ([35]; control C: ++): ++; Color [36]: −; Coloration strength [36]: −; Growth ([36]; control C: ++): ++; Coloration strength (Candida albicans 0801025 [37]): −; Growth (Candida albicans 0801025 [37]; control C: ++): +; Color [38]: −; Coloration strength [38]: −; Growth ([38]; control C: ++): ++; Color [39]: orange; Coloration strength [39]: +; Growth ([39]; control C: ++): ++; Color [40]: orange; Coloration strength [40]: +; Growth ([40]; control C: ++): ++; Color [41]: orange; Coloration strength [41]: +; Growth ([41]; control C: ++): ++; Color [42]: orange; Coloration strength [42]: +; Growth ([42]; control C: ++): ++; Color [43]: −; Coloration strength [43]: −; Growth ([43]; control C: ++): ++; Color [44]: orange; Coloration strength [44]: +; Growth ([44]; control C: ++): ++
